A short description of series [1]: Metabolic stability in human liver microsomes. Type of series: in vitro ADME. As to conditions: human liver microsomes 0.5 mg/ml, 1 μM, 30 minutes, 37° C., NADPH. As for the experimental part: The stability of a drug may be predicted by using liver microsomes to determine the extent to which the drug is metabolized in the liver. […] Thus, a metabolic stability verification experiment was performed on the oxadiazole derivatives according to The present disclosure.
Specifically, sample treatment human liver microsomes (0.5 mg/ml), 0.1 M phosphate buffer (pH 7.4), and test compound at a concentration of 1 μM were added, and the mixture was pre-incubated at 37° C. for 5 minutes, followed by addition of NADPH Regeneration system solution and incubation at 37° C. for 30 minutes. An acetonitrile solution containing an internal standard (chlorpropamide) was then added to terminate the reaction, followed by centrifugation for 5 minutes (14,000 rpm, 4° C.). Then, the supernatant was injected into the LC-MS/MS system to analyze the substrate drug to evaluate the metabolic stability of the two compounds.
The HPLC column was an Acquity UPLC BEH Amide column (2.1×100 mm, 1.7 μm particle size; Waters, Ireland). The mobile phases were distilled water containing 0.1% formic acid (A) and acetonitrile containing 0.1% formic acid (B). Data analysis was performed using Analyst software (version 1.6.3).

For a further series, the target named is T1, human NOX4 (Homo sapiens, UniProt Q9NPH5).
T1 construct: made in house; host or cells: transgenic Drosophila (Da-GAL4 driven UAS-hNOX4, dDuox RNAi background); membranes from homogenized flies
T1 sequence (Q9NPH5 1-578): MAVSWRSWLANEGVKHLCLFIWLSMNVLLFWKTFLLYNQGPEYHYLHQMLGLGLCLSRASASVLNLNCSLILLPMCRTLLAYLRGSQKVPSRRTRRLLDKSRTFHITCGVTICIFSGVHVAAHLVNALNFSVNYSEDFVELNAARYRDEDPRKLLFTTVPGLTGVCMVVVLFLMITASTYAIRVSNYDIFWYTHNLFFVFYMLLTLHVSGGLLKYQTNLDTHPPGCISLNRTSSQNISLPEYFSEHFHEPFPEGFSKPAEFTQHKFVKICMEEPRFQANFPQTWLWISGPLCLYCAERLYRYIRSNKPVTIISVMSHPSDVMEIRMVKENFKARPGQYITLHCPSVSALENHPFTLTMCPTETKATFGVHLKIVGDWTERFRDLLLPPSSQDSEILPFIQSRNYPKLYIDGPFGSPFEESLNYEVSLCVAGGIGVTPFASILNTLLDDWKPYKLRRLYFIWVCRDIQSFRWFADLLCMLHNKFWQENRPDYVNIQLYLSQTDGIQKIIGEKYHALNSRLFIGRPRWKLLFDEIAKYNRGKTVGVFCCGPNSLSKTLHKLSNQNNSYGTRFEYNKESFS
In words: Lucigenin chemiluminescence assay, drosophila membranes expressing hNOX4. The format is biochemical. Particulars: average of three repeats. As for the experimental part:
Human NOX isozymes were provided from transgenic flies expressing human NOX isozymes from the daughterless (Da)-GAL4 promoter. The genotype of each fly line is shown below. • human NOX2:UAS-hNOX2/UAS-dDuox-RNAi; Da-GAL4/+ • human NOX4:UAS-hNOX4/UAS-dDuox-RNAi; Da-GAL4/+
Transgenic flies were homogenized in PBS containing protease inhibitors (aprotinin, leupeptin) to obtain drosophila membranes of each NOX isozyme. The membranes were incubated with the compounds (100 μM, 10 μM, 1 μM, 0.1 μM, 0.01 μM, 0.001 μM, and 0 μM) for 10 minutes in a shaker. Then, to the membranes, a mixture of 500 μM NADPH (R-nicotinamide adenine dinucleotide 2′-phosphate reduced tetrasodium salt hydrate; Sigma-Aldrich) and 400 μM lucigenin (N,N′-dimethyl-9,9-biacridinium dinitrate; Sigma-Aldrich) in 1× HEPES (4-(2-hydroxyethyl)-1-piperazineethanesulfonic acid) buffer was added. Lucigenin chemiluminescence was detected at 1-minute intervals for 10 minutes using a multimode microplate reader (SpectraMax iD3, Molecular Devices). IC50 values were calculated with Graph-Pad Prism 5 (GraphPad Software).
The lucigenin chemiluminescence assay was performed with drosophila membranes expressing hNOX1, hNOX2, and hNOX4. The assay was repeated three times and the IC50 values were averaged.

Series [2] relates to MPTP-induced Parkinson's disease. In words: MPTP-induced Parkinson's disease mouse model. Type of series: in vivo, mice. Particulars: for MPTP-induced increase in number of microglia (Iba1+ cells) in the substantia nigra and striatum / density of Th+ fibers in the striatum / number of dopaminergic neurons (Th+ cells) in the substantia nigra: 30 mg/kg oral for 8 days; for density of Th+ fibers in the striatum / number of dopaminergic neurons (Th+ cells) in the substantia nigra / pole test T-total / pole test T-turn: compared to the vehicle-treated group; for pole test T-total / pole test T-turn: Day 6 after MPTP, 30 mg/kg oral. On the procedure: To evaluate the effect of compounds of Example 1 and Example 2 on MPTP (1-methyl-4-phenyl-1,2,3,6-tetrahydropyridine hydrochloride; Sigma-Aldrich)-induced Parkinson's disease, C57BL/6 male mice (9 weeks old) were randomly divided into three groups. • saline+vehicle • MPTP+vehicle • MPTP+compound of Example 1 or […] (30 mg/kg)
To induce Parkinson's disease, mice were intraperitoneally injected with MPTP (25 mg/kg) four times at 2-hour intervals, while control mice were treated with an equal volume of saline. The compounds of Example 1 or Example 2 were dissolved in a solvent consisting of 10% DMAC (dimethyl acetamide, Sigma-Aldrich), 10% Tween 80 (Sigma-Aldrich) and 80% saline (JW Pharmaceuticals). Mice were orally administered with 30 mg/kg of the compound of Example 1 or Example 2 starting 1 day prior to MPTP injection for 8 days.
Seven days after MPTP administration (one day after the last administration of the compound of Example 1 or Example 2), experimental animals were sacrificed by perfusion with saline (JW Pharmaceuticals) followed by 10% formalin (Sigma-Aldrich), and brain tissues were obtained. The tissues were cut into 30 μm thick slices using a cryostat (Leica) and stored in an anti-freezing solution (30% sucrose, 1% polyvinylpyrrolidone, and 30% ethylene glycol in 1×PBS) at −20° C.
Anti-tyrosine hydroxylase antibody (1:2000-4000, ABCAOM) was used to detect dopaminergic neurons and anti-Iba1 antibody (1:1000, Wako) was used to measure microglia. Biotinylated goat anti-rabbit antibody (VECTOR, BA-1000) was used as a secondary antibody and ABC solution (VECTOR, BA-1000) was used. The immunoreactive sections were then incubated with 3-3′ diaminobenzidine (DAB, Dako) to change the color to brown.
For the substantia nigra, six coronal sections, one every 150 μm, between −2.80 mm and −3.80 mm bregma were used, and for the striatum, three coronal sections between +0.98 mm and +0.50 mm bregma were collected. The coronal sections were stained with anti-tyrosine hydroxylase antibody or anti-Iba1 antibody and then analyzed by counting the number of stained cells or using ImagePro plus 7.0 software.
The mice were moved to a home cage where they were placed head up in the top of a 60 cm vertical pole with a diameter of 1 cm, and were then allowed to descend themselves and stay for about 15 seconds in the home cage.
The above procedure was repeated three times, all of which were videotaped, and the time for the mouse's head to turn completely downward (T-turn) and total time to descend to the floor (T-total) were analyzed.

With `O=C(Nc1nnc(-c2cccc(Cl)c2)o1)c1cc(F)cc(C(F)(F)F)c1` [Example 1, N-(5-(3-chlorophenyl)-1,3,4-oxadiazol-2-yl)-3-fluoro-5-(trifluoromethyl)benzamide], the “Human (% ) remaining, microsomal stability” value in series [1] is recorded as 81.7%. Also, inhibition against human NOX4 was half-maximal at 160 nM (IC50). In series [2], the “MPTP-induced increase in number of microglia (Iba1+ cells) in the substantia nigra and striatum” value is given as “effectively reduced”; the “density of Th+ fibers in the striatum” value is “higher”; the “number of dopaminergic neurons (Th+ cells) in the substantia nigra” value was “higher”; the “pole test T-total” value was “significant decrease”. In series [2], the “pole test T-turn” value is “decrease”.
With `O=C(Nc1nnc(-c2ccccc2)o1)c1ccc(F)c(C(F)(F)F)c1` [Example 2, 4-fluoro-N-(5-phenyl-1,3,4-oxadiazol-2-yl)-3-(trifluoromethyl)benzamide], the “Human (% ) remaining, microsomal stability” value in series [1] is above 100%. Further, on human NOX4, it took 440 nM to reach half-maximal inhibition (IC50). Moreover, in series [2], the “MPTP-induced increase in number of microglia (Iba1+ cells) in the substantia nigra and striatum” value was “effectively reduced”; the “density of Th+ fibers in the striatum” value was “higher”; the “number of dopaminergic neurons (Th+ cells) in the substantia nigra” value is on record as “higher”; the “pole test T-total” value is reported as “significant decrease”. Also, the “pole test T-turn” value in series [2] was “decrease”.

The values are drawn from patent US20250051293A1, “NOVEL OXADIAZOLE DERIVATIVE AND USE THEREOF” (CELROS BIOTECH, priority 2021, published 2025).
